Experimental findings from PubChem BioAssay AID1996 are described below.

The structures appear in SMILES notation. Converted amounts (≈) assume the structure as drawn.

The solubility (kinetic) is the concentration staying in solution when a stock, usually in DMSO, is diluted into the medium.

The conditions of this series: buffer; pH 7.4; 200.0 µM.
As to `O=C(NCC(c1ccco1)N1CCCC1)c1ccc(-n2cccn2)cc1` (centres undefined), the solubility (kinetic) was over 52.6 µg/mL. Turning to `O=C(COC(=O)Cc1ccc(Cl)cc1Cl)NC1CC1`, the kinetic solubility was over 45.3 µg/mL.

As for `CCN(CC)c1ccc(/C=N/O)cc1`, the solubility (kinetic) is over 28.8 µg/mL. For `COc1ccc(NC(=O)C2=Cc3cccc(OC)c3OC2)cc1` the value was 17.7 µg/mL (≈ 56.9 µM); for `CCCCCn1c(C)c2c(OCC)cccc(=O)c2c1C`, 9.4 µg/mL (≈ 32.7 µM). The compound `O=c1ccn(CCc2c[nH]c3ccccc23)c2c1CCCC2` had a kinetic solubility of over 43.9 µg/mL. The compound `CN1C(C(=O)Nc2ccccn2)=C(O)c2sc(Cl)cc2S1(=O)=O` gave a solubility (kinetic) of 15.5 µg/mL (≈ 41.7 µM). The compound `Cc1cc(C)nc(NC2=NCCN2C(=S)Nc2ccc(C)c(C)c2)n1` yielded a solubility (kinetic) of 2.4 µg/mL (≈ 6.77 µM). `CCCCn1c(=S)[nH]c2ccc(N3CCOCC3)cc2c1=O` displayed a solubility (kinetic) of 4.3 µg/mL (≈ 13.5 µM). The result for `COc1cccc(NC(=O)C(=O)NCCCn2ccnc2)c1` reads 42.2 µg/mL (≈ 140 µM); that for `COc1ccc(/C=C2\SC(=O)N(CC(=O)Nc3cccc(C)c3)C2=O)cc1O`, 0.6 µg/mL (≈ 1.51 µM). Turning to `O=C(Nc1cccc(C(=O)O)c1)/C(=C\c1ccco1)NC(=O)c1ccccc1`, the kinetic solubility was 51 µg/mL (≈ 136 µM).

The compound `O=c1c2ccccc2[nH]c2ccccc12` yielded a solubility (kinetic) of 4.7 µg/mL (≈ 24.1 µM). Compound `CC1=C(C(=O)O)N2C(=O)C(NC(=O)c3ccccc3Cl)C2SC1` (centres undefined) registered a solubility (kinetic) of over 52.9 µg/mL.

Compound `Cc1cc(C(=O)Nc2ccncc2)c2ccccc2n1` showed a solubility (kinetic) of 26.3 µg/mL (≈ 99.9 µM).

`C/C(=N\OC(=O)Nc1ccccc1)c1ccc(C)cc1` returned a solubility (kinetic) of 15 µg/mL (≈ 55.9 µM).

The compound `CC(C)Oc1ccc(C2NC(=O)c3ccccc3O2)cc1` (centres undefined) came in with a kinetic solubility of 2.6 µg/mL (≈ 9.18 µM). `O=c1ccc2cc(S(=O)(=O)Nc3ccccc3F)ccc2o1` displayed a solubility (kinetic) of over 47.9 µg/mL.

For `CSc1ncccc1C(=O)OCC(=O)c1ccc[nH]1`, the solubility (kinetic) is 9.7 µg/mL (≈ 35.1 µM).

On to `COc1ccccc1C(=O)COC(=O)C(NC(=O)Cc1ccccc1)C(C)C` (centres undefined), for which the kinetic solubility stood at 56.5 µg/mL (≈ 147 µM).

Turning to `Cc1cc2nccc(-c3ccncc3)n2n1`, the kinetic solubility was over 31.5 µg/mL. As for `O=C1CN(C(=O)COc2ccc(F)cc2Cl)c2ccccc2N1`, the solubility (kinetic) was over 50.2 µg/mL. For `C=CCNC(=O)C1CC1(c1ccc(C)cc1)c1ccc(C)cc1` (centres undefined), the kinetic solubility is 30.6 µg/mL (≈ 100 µM). Compound `Cc1ccccc1N1C(=O)CC(c2c[nH]c3ccccc23)C1=O` (centres undefined) displayed a solubility (kinetic) of over 45.7 µg/mL. The result for `O=C(O)c1ccc2c(c1)SC1=NS(=O)(=O)CCN12` reads over 42.6 µg/mL; that for `CN(CC(=O)Nc1cccc(C(F)(F)F)c1)C1=NS(=O)(=O)c2ccccc21`, 3.7 µg/mL (≈ 9.31 µM); that for `CCCNC(=O)N1CCC(Cc2ccccc2)CC1`, over 39.1 µg/mL. Take `Cc1ccc(NC(=O)C2CC(O)CN2C(=O)OCc2ccccc2)cc1C` (centres undefined): the kinetic solubility amounted to 48.8 µg/mL (≈ 132 µM). Consider `Cc1c(Cl)cccc1NC(=O)C1CCN(S(C)(=O)=O)CC1`, for which the solubility (kinetic) came to 16.9 µg/mL (≈ 51.1 µM). Turning to `Cc1ccc(NC(=O)c2cccnc2)c([N+](=O)[O-])c1`, the solubility (kinetic) is over 38.6 µg/mL. For `O=Cc1c(NCCc2cccc(F)c2)c2ccccc2[nH]c1=O`, the solubility (kinetic) stood at 9.3 µg/mL (≈ 30 µM). Take `CS(=O)(=O)Nc1ccccc1C(=O)NCCSc1ccc(Cl)cc1`: the solubility (kinetic) stood at 33.8 µg/mL (≈ 87.8 µM).

Compound `O=C(C[n+]1ccc(C(=O)c2ccccc2)cc1)Nc1ccccc1OC(F)F.[Cl-]` had a kinetic solubility of 59.4 µg/mL. Consider `CCOC(=O)c1cccc(NC(=O)N2CCOCC2)c1`, for which the kinetic solubility is over 41.7 µg/mL. For `COC(=O)c1ccc(Nc2cc(C)nc3ccc(C)cc23)cc1.Cl` the value was 8 µg/mL; for `Nc1c(C(=O)C2CC2)sc2nc3c(cc12)CCC3`, 2.2 µg/mL (≈ 8.52 µM); for `CCc1ccccc1NC(=O)N1CCc2ccccc21`, 6.1 µg/mL (≈ 22.9 µM). For `COc1ccccc1C(=O)NCCCNC(=O)c1cnccn1` the value was 36.6 µg/mL (≈ 116 µM).

The compound `CCOC(=O)C1(CC2CC2)CCN(S(=O)(=O)/C=C/c2ccccc2)CC1` came in with a kinetic solubility of 3.6 µg/mL (≈ 9.54 µM). As for `CCCn1cnc2cc(NC(=O)c3ccco3)ccc21`, the solubility (kinetic) is over 40.4 µg/mL. Take `Cc1ccc(N=Cc2c(O)c3ccccc3oc2=O)c(C)c1`: the kinetic solubility was under 0.6 µg/mL. `Cc1ccc(NC(=O)CSc2nccn2C)cc1F`: the solubility (kinetic) was over 41.9 µg/mL. Compound `C/C(=N\n1c(C)nc2ccccc2c1=O)c1ccc(C)o1` displayed a solubility (kinetic) of over 42.2 µg/mL. In turn, `Cc1cc(Nc2ccc(C(=O)N3CCCCC3)cc2)c2cccc(C)c2n1` displayed a kinetic solubility of 4.8 µg/mL (≈ 13.4 µM). The result for `O=C(Nc1cccc(C(=O)Nc2ccc(F)cc2F)c1)c1ccccc1` reads 0.4 µg/mL (≈ 1.14 µM). In the case of `CC1CCCC(NC(=O)c2ccc3c(c2)NC(=O)CS3)C1C` (centres undefined), the kinetic solubility came to 5.3 µg/mL (≈ 16.6 µM). The compound `O=C(CCc1nc(-c2ccc(Cl)cc2)no1)NC1CCCC1` registered a solubility (kinetic) of 6.4 µg/mL (≈ 20 µM). The compound `CN1CCN(C(=O)CN(C)S(=O)(=O)c2ccc(F)cc2)CC1` came in with a solubility (kinetic) of 44.7 µg/mL (≈ 136 µM). `CC(CC(=O)O)CC(=O)Nc1ccc(Br)cc1` (centres undefined) returned a solubility (kinetic) of over 45 µg/mL.

Consider `COc1cccc(NC(=O)CSc2cccc[n+]2[O-])c1`, for which the kinetic solubility was over 43.6 µg/mL.

As for `CC(C)NC(=O)c1cc(-c2ccc3c(c2)OCO3)on1`, the solubility (kinetic) is 17.9 µg/mL (≈ 65.3 µM). In turn, `CCN1C(=O)c2ccc(C(=O)NCc3ccco3)cc2C1=O` yielded a kinetic solubility of over 44.7 µg/mL.

Take `CCN1CCN(C(=O)c2cc3cc(Cl)ccc3[nH]2)CC1`: the kinetic solubility was over 43.8 µg/mL.

`COc1cccc(CNc2cc(C)ccn2)c1O` had a kinetic solubility of over 36.6 µg/mL. The result for `CNc1nccc(-c2ccc(Cl)cc2)c1C#N` reads 1.5 µg/mL (≈ 6.16 µM); that for `COc1ccccc1C(=O)NCCC(=O)N1CCCCC1`, over 43.6 µg/mL. In turn, `O=C(c1cccc(S(=O)(=O)NCc2ccccc2)c1)N1CCN(c2ccccc2)CC1` showed a kinetic solubility of 2.4 µg/mL (≈ 5.51 µM). For `CN(CCC#N)C(=S)Nc1ccc(F)cc1` the value was 32.8 µg/mL (≈ 138 µM).

The compound `O=C(NC1CCN(C(=O)c2cccc([N+](=O)[O-])c2)CC1)c1ccccc1` returned a solubility (kinetic) of over 53 µg/mL.

Compound `O=C(O/N=C(/c1ccccc1)c1ccncc1)c1ccccc1[N+](=O)[O-]` had a kinetic solubility of 8.3 µg/mL (≈ 23.9 µM). With `CC(CCc1ccccc1)NC(=O)COC(=O)c1cccs1` (centres undefined), the kinetic solubility is over 47.6 µg/mL. The compound `C=CCN(CC=C)C(=S)Nc1cc(Cl)ccc1OC` displayed a solubility (kinetic) of over 44.5 µg/mL.

In turn, `OCC1OC(n2cnc3c(NC4CCCC4)ncnc32)C(O)C1O` (centres undefined) yielded a kinetic solubility of over 50.3 µg/mL.

`Cc1cccc(OC(C)C(=O)Nc2ccc(S(=O)(=O)N3CCCC3)cc2)c1` (centres undefined) yielded a solubility (kinetic) of 16.4 µg/mL (≈ 42.2 µM).

Turning to `Cc1c(C(=O)O/N=C(\N)c2ccccn2)cccc1[N+](=O)[O-]`, the solubility (kinetic) is 5.2 µg/mL (≈ 17.3 µM). The compound `COCCOC(=O)C(CC(=O)O)NCc1ccco1` (centres undefined) showed a solubility (kinetic) of over 40.7 µg/mL. `COc1ccc(Br)cc1CN(C)C(=O)c1ccncc1` returned a kinetic solubility of over 50.3 µg/mL. In turn, `CN(C)c1cccc(NC(=O)NC2(C)CCS(=O)(=O)C2)c1` (centres undefined) came in with a kinetic solubility of over 46.7 µg/mL. Regarding `CCNC(=O)CN1C(=O)NC2(CCOc3ccccc32)C1=O` (centres undefined), the solubility (kinetic) is over 45.5 µg/mL.

`CCN(CC)CCOC(=O)C(O)(c1ccccc1)c1ccccc1.Cl` showed a solubility (kinetic) of over 54.6 µg/mL. In the case of `O=C(O)c1cccc(N2C(=O)CSC2=S)c1`, the kinetic solubility was over 38 µg/mL. For `O=C(Nc1cccc2cccnc12)c1ccc(Cl)cc1` the value was under 0.3 µg/mL; for `O=C(CSc1ccccc1C(=O)O)NCc1ccccc1`, 44 µg/mL (≈ 146 µM). `COc1ccc(C)cc1S(=O)(=O)NCc1cccs1` registered a kinetic solubility of 42.4 µg/mL (≈ 143 µM).

In the case of `Cc1ccc(C(=O)N=c2sccn2C)cc1C`, the solubility (kinetic) amounted to 10 µg/mL (≈ 40.6 µM).

Turning to `CSc1ccccc1C(=O)NC(C)c1ccc(-n2ccnc2)cc1` (centres undefined), the kinetic solubility was over 50.6 µg/mL.

On to `CC(Nc1ccc2c(c1)OCCO2)C(=O)N1c2ccccc2CC1C` (centres undefined), for which the kinetic solubility is over 50.8 µg/mL. For `O=C(c1ccc(F)cc1)c1ccc(OCC(=O)N2CCOCC2)cc1` the value was over 51.5 µg/mL; for `CCN(C(=O)COC(=O)C1=COCCO1)c1ccccc1`, over 43.7 µg/mL; for `Cc1ccc(CN2CCC(NC(=O)c3ccccc3)CC2)cc1`, over 46.3 µg/mL.

In turn, `CCCOc1ccc(N2C(=O)CC(NCC(=O)OCC)C2=O)cc1` (centres undefined) came in with a solubility (kinetic) of over 50.2 µg/mL.

On to `Cn1c2c(c(=O)n(C)c1=O)C(c1cccc(F)c1)C(C#N)=C(N)O2` (centres undefined), for which the kinetic solubility was 45.5 µg/mL (≈ 139 µM).

In turn, `CCc1ccc(CNc2ccc3c(c2)ncn3CC)cc1` returned a kinetic solubility of 37.3 µg/mL (≈ 134 µM). In the case of `Cc1csc(=O)n1CC(=O)OCC(=O)NCc1ccccc1`, the kinetic solubility was over 48.1 µg/mL. For the compound `Cc1cc(C)c(N=C2C(=O)Nc3ccccc32)c(C)c1`, the solubility (kinetic) was over 39.6 µg/mL.

Take `Cc1ccc(S(=O)(=O)CC(=O)Nc2cc(C)on2)cc1`: the kinetic solubility was found to be 37.6 µg/mL (≈ 128 µM). `COc1c(C)cccc1C(=O)NCc1ccc2c(c1)OCO2` had a kinetic solubility of over 44.9 µg/mL. The result for `COCCCn1c(=O)c2ccccc2n(Cc2cccc(C)c2)c1=O` reads 42.6 µg/mL (≈ 126 µM); that for `Cc1c(N(C)CS(=O)(=O)O)c(=O)n(-c2ccccc2)n1C.[Na]`, over 50.2 µg/mL. The compound `Cc1ccccc1NC(=O)NC1(C(=O)N2CCC(O)CC2)CCCCC1` returned a kinetic solubility of 44.1 µg/mL (≈ 123 µM). Compound `Cc1cccc(C)c1NC(=S)NCc1ccncc1` had a kinetic solubility of over 40.7 µg/mL. Take `O=C(CCC(=O)c1cccs1)NC1CCCCCC1`: the kinetic solubility amounted to 25.6 µg/mL (≈ 91.6 µM). Take `c1ccc(CNc2nc(-c3cccnc3)cs2)cc1`: the kinetic solubility was 22.4 µg/mL (≈ 83.8 µM). In the case of `O=C(Nc1ccccc1O)c1ccc(C(=O)c2ccccc2)o1`, the kinetic solubility was under 0.7 µg/mL.

`O=C(CC12CC3CC(CC(C3)C1)C2)NCc1ccccc1` registered a kinetic solubility of 0.6 µg/mL (≈ 2.12 µM). In turn, `O=[N+]([O-])c1cc(-c2ncccn2)c([N+](=O)[O-])s1` gave a solubility (kinetic) of 34.8 µg/mL (≈ 138 µM). The result for `CC1CCC(NC(=O)c2cccn2C)CC1` (centres undefined) reads over 33 µg/mL. `Cn1cncc1COC(=O)c1ccc(Cl)cc1` had a kinetic solubility of over 37.6 µg/mL. For the compound `CCOc1ccc2nc(SCC(=O)Nc3nonc3C)[nH]c2c1`, the kinetic solubility stood at 2.2 µg/mL (≈ 6.6 µM). For `O=C(Nc1ccc2c(c1)CCC2)c1cnc(Cl)c(Cl)c1` the value was under 0.3 µg/mL; for `c1ccc2nc(-c3nccs3)ccc2c1`, 10.3 µg/mL (≈ 48.5 µM); for `CCc1ccc(N2C(=O)CC(N3CCN(c4ccccn4)CC3)C2=O)cc1` (centres undefined), over 54.7 µg/mL. The result for `COC(CNc1ccc([N+](=O)[O-])c(NCC(OC)OC)c1C#N)OC` reads 19 µg/mL (≈ 53.6 µM). Turning to `O=C(Cn1cc(C(F)(F)F)cc(Cl)c1=O)NCc1ccccc1`, the kinetic solubility is 7.8 µg/mL (≈ 22.6 µM).
